Where a name gives a salt, the structure may show the parent alone.
Key:
Human recombinant MMP-1 = target: T1, Human recombinant MMP-1 (Homo sapiens, UniProt P03956); experiment: In vitro MMP inhibition, Ki determination (fluorogenic substrate II); format: biochemical
T1 construct: made in house; host or cells: MMP-1-transfected HT-1080 cells (spent media)
T1 sequence (P03956 100-469): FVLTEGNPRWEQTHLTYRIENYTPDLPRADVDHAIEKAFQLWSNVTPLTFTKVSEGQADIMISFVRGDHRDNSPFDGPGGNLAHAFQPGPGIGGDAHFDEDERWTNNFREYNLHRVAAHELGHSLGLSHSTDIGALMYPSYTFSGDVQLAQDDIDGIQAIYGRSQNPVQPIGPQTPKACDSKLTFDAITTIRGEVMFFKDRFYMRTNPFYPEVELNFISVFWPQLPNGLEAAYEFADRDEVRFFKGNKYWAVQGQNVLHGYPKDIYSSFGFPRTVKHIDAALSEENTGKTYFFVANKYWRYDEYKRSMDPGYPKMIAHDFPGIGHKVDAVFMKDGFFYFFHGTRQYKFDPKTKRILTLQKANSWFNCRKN
Procedure: Several hydroxamates and salts thereof were analyzed in in vitro assays to determine their ability to inhibit the MMP cleavage of peptide substrates. Inhibition (Ki) and IC50 constants were calculated from the assayed hydroxamate-MMP interactions.
Human recombinant MMP-1, MMP-2, MMP-9, MMP-13, and MMP-14 were used in this assay. All enzymes were prepared in Assignee's laboratories following usual laboratory procedures. Protocols for the preparation and use of these enzymes are available in the scientific literature. See, e.g., Enzyme Nomenclature (Academic Press, San Diego, Calif., 1992) (and the citations therein). See also, Frije et al., J. Biol. Chem., 26(24), 16766-73 (1994).
The MMP-1 proenzyme was purified from the spent media of MMP-1-transfected HT-1080 cells provided by Dr. Harold Welgus of Washington University (St. Louis, Mo.). The protein was purified on a zinc chelating column.
All MMPs were activated using 4-aminophenylmercuric acetate (“APMA”, Sigma Chemical, St. Louis, Mo.) or trypsin. MMP-9 also was activated using human recombinant MMP-3 (purified in Assignee's laboratory following standard cloning and purification techniques).
Two fluorogenic, methoxycoumarin-containing polypeptide substrates were used in the MMP inhibition assays:
MCA-ArgProLeuGlyLeuDpaAlaArgGluArgNH2 (II)
Here, “Dpa” is 3-(2,4-dinitrophenyl)-L-2,3-diaminopropionyl group, and “MCA” is 7-methoxycoumarin-4-yl acetyl. Substrate (I) was purchased from Baychem (Redwood City, Calif.), and substrate II was prepared Assignee's laboratory. Substrate I was used in the IC50 determination assays, while substrate II was used in the Ki determination assays. In the absence of MMP inhibitory activity, either substrate is cleaved at the Gly-Leu peptide bond. This cleavage separates the highly fluorogenic peptide from the 2,4-dinitrophenyl quencher, thus resulting in increase of fluorescent intensity.
The stock solutions of the assayed hydroxamates (or salts thereof) were prepared in 1% dimethyl sulfoxide (DMSO). These stock solutions were diluted in Buffer A (100 mM Tris-HCl, 100 mM NaCl, 10 mM CaCl2, 0.05% polyoxyethylene 23 lauryl ether, pH 7.5) to obtain solutions with different hydroxamate concentrations, i.e., assay solutions with different concentrations of the assayed MMP inhibitory compound. The experiment controls contained the same amount of Buffer A/DMSO as the assayed sample, but contained no hydroxamate (or salt thereof).
The assays from which the Ki determinations were made were performed as follows. The assayed hydroxamate samples were incubated in separate wells of untreated white polystyrene plates (Nunc Nalgene International, Rochester, N.Y.), and analyzed on a Tecan SpectraFlour Plus plate reader. The excitation wavelength was 330 nm, and the emission wavelength—420 nm. All samples (assayed hydroxamates and controls) were incubated in separate plate wells at room temperature for 1 hr in the presence of 4 μM of MMP substrate (II). In the absence of MMP inhibitory activity, substrate II was cleaved at the Gly-Leu bond resulting in an increase of relative fluorescence. Inhibition was observed as a reduced rate of this increase in relative fluorescence. The various hydroxamates were analyzed using a single low enzyme concentration with a single substrate concentration fixed at or below the Km. This protocol is a modification of method by Knight et al., FEBS Lett., 296(3), 263-266 (1992). Apparent inhibitory constants were determined by non-linear regression of reaction velocity as a function of inhibitor and enzyme concentration using Morrison's equation, as described by Kuzmic, Anal. Biochem. 286, 45-50 (2000). Modifications were made in the non-linear regression method to allow a common control reaction rate and effective enzyme concentration to be shared between all dose-response relationships on a given assay plate. […]

Human recombinant MMP-14 = target: T2, Human recombinant MMP-14 (Homo sapiens, UniProt P50281); experiment: In vitro MMP inhibition, IC50 determination (fluorogenic substrate I); format: biochemical; conditions: substrate (I) 4 μM, room temperature; values not in parenthesis
T2 construct: The catalytic domain enzyme was expressed in E. coli inclusion bodies, solubilized in urea; made in house
In short: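 Catalytic-domain MMP-14, expressed in E. coli and refolded, activated with APMA or trypsin; compounds incubated at room temperature with 4 μM fluorogenic substrate I (MCA-PLGL-Dpa-AR-NH2) in Tris/NaCl/CaCl2 buffer, pH 7.5. Fluorescence at ex 328/em 415 nm; IC50 from loss of fluorescence versus inhibitor concentration.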

[1] = substrate (II) 4 μM, 1 hr room temperature, apparent Ki, values in parenthesis

Compound	Ki (Human recombinant MMP-1; [1]) [µM]	IC50 (Human recombinant MMP-14) [µM]	Ki (Human recombinant MMP-1; value in parenthesis) [µM]
O=C(NO)C1(S(=O)(=O)c2ccc(OCCCc3nc(-c4ccc(OC(F)(F)F)cc4)no3)cc2)CCOCC1 [Example 31, tetrahydro-N-hydroxy-4-[[4-[3-[3[4-(trifluoromethoxy)phenyl]-1,2,4-oxadiazol-5-yl]propoxy]phenyl]sulfonyl]-2H-pyran-4-carboxamide]	> 10	> 10	
O=C(NO)C1(S(=O)(=O)c2ccc(OCCCc3cccc(-c4ccc(F)cc4)c3)cc2)CCOCC1 [Example 39]	> 10		
O=C(NO)C1(S(=O)(=O)c2ccc(OCCc3cccc(-c4ccccn4)c3)cc2)CCOCC1 [Example 40]	> 10	> 10	
COCCN1CCC(C(=O)NO)(S(=O)(=O)c2ccc(OCCCc3nc(-c4ccc(OC(F)(F)F)cc4)no3)cc2)CC1 [Example 42]	> 10	> 10	
COCCN1CCC(C(=O)NO)(S(=O)(=O)c2ccc(OCCCn3nnc(-c4ccc(OC(F)(F)F)cc4)n3)cc2)CC1 [Example 48]		> 10	
NC(=O)c1cccc(OCCOc2ccc(S(=O)(=O)C3(C(=O)NO)CCOCC3)cc2)c1 [Example 54]	> 10		
O=C(NO)C1(S(=O)(=O)c2ccc(OCCCc3cccc(-c4ccco4)c3)cc2)CCOCC1 [Example 97]			7.36
O=C(NO)C1(S(=O)(=O)c2ccc(OCCCc3cccc(-c4ccc(OC(F)(F)F)cc4)c3)cc2)CCOCC1 [Example 147]			> 10
O=C(NO)C1(S(=O)(=O)c2ccc(OCCCc3cccc(-c4ccccn4)c3)cc2)CCOCC1 [Example 148]			8.79
O=C(NO)C1(S(=O)(=O)c2ccc(OCCCc3cccc(-c4ccncc4)c3)cc2)CCOCC1 [Example 149]			> 10
CC(C)c1ccc(-c2cccc(CCCOc3ccc(S(=O)(=O)C4(C(=O)NO)CCOCC4)cc3)c2)cc1 [Example 160]			> 10
O=C(NO)C1(S(=O)(=O)c2ccc(OCCCc3cccc(-c4ccccc4Cl)c3)cc2)CCOCC1 [Example 162]			> 10

More lines, now with the values ahead:

Ki (Human recombinant MMP-1; [1]) [µM]	IC50 (Human recombinant MMP-14) [µM]	Ki (Human recombinant MMP-1; value in parenthesis) [µM]	Compound
> 10	> 10		CCN1CCC(C(=O)NO)(S(=O)(=O)c2ccc(OCCCc3nc(-c4ccc(OC(F)(F)F)cc4)no3)cc2)CC1 [Example 41, 1-ethyl-N-hydroxy 4-{[4-(3-{3-[4-(trifluoromethoxy)phenyl]-1,2,4-oxadiazol-5-yl}propoxy)phenyl]sulfonyl}piperidine-4-carboxamide Hydrochloride]
> 10	> 10		CCN1CCC(C(=O)NO)(S(=O)(=O)c2ccc(OCCCc3cccc(-c4ccccc4)c3)cc2)CC1 [Example 46]
> 10			COCCN1CCC(C(=O)NO)(S(=O)(=O)c2ccc(OCCCc3cc(-c4ccc(F)cc4F)cs3)cc2)CC1 [Example 47, 4-[(4-{3-[4-(2,4-difluorophenyl)thien-2-l]propoxy}phenyl)sulfonyl]-N-hydroxy-1-(2-methoxyethyl)piperidine-4-carboxamide Hydrochloride]
> 10	> 10		O=C(NO)C1(S(=O)(=O)c2ccc(OCCCn3nnc(-c4ccc(OC(F)(F)F)cc4)n3)cc2)CCN(C2CC2)CC1 [Example 49]
5.16	> 10		O=C(NO)C1(S(=O)(=O)c2ccc(OCCCc3nc(-c4ccc(OC(F)(F)F)cc4)no3)cc2)CCN(C2CC2)CC1 [Example 51, 1-cyclopropyl-N-hydroxy-4-{[4-(3-{3-[4-(trifluoromethoxy)phenyl]-1,2,4-oxadiazol-5-yl}propoxy)phenyl]sulfonyl}piperidine-4-carboxamide Hydrochloride]
> 10	> 10		O=C(NO)C1(S(=O)(=O)c2ccc(OCCCn3nnc(-c4ccc(OC(F)(F)F)cc4)n3)cc2)CCN(CC2CC2)CC1 [Example 53]
		> 10	O=C1Nc2ccc(-c3noc(CCCOc4ccc(S(=O)(=O)C5(C(=O)NO)CCN(C6CC6)CC5)cc4)n3)cc21 [Example 142]
